Series [1] deals with Peripheral blood mononuclear cells (PBMC). Briefly: Cytokine induction in human cells (in vitro human blood cell system). It is filed as cell-based. The note with it: generally tested at 30-0.014 μM, incubated 18 to 24 hours, ELISA. The text has this:
An in vitro human blood cell system is used to assess cytokine induction. Activity is based on the measurement of interferon (α) and tumor necrosis factor (α) (IFN and TNF, respectively) secreted into culture media as described by Testerman et al. in “Cytokine Induction by the Immunomodulators Imiquimod and S-27609,” Journal of Leukocyte Biology, 58, 365-372 (September, 1995).
Whole blood from healthy human donors is collected by venipuncture into EDTA vacutainer tubes. Peripheral blood mononuclear cells (PBMC) are separated from whole blood by density gradient centrifugation using HISTOPAQUE-1077. Blood is diluted 1:1 with Dulbecco's Phosphate Buffered Saline (DPBS) or Hank's Balanced Salts Solution (HBSS). […]
Following incubation the plates are centrifuged for 10 minutes at 1000 rpm (approximately 200×g) at 4° C. […] The samples are analyzed for interferon (α) by ELISA and for tumor necrosis factor (α) by ELISA or IGEN Assay.
Interferon (α) concentration is determined by ELISA using a Human Multi-Species kit from PBL Biomedical Laboratories, New Brunswick, N.J. Results are expressed in pg/mL.
Tumor necrosis factor (α) (TNF) concentration is determined using ELISA kits available from Biosource International, Camarillo, Calif. Alternately, the TNF concentration can be determined by ORIGEN M-Series Immunoassay and read on an IGEN M-8 analyzer from IGEN International, Gaithersburg, Md. […]
(In general: In an ELISA, binding on a coated surface is turned into a signal by an enzyme label.)

Another series relates to cytokine biosynthesis. The note with it: U.S. Pat. No. 6,194,425; cited from earlier work.
The nature of series [2]: Hygroscopicity / water sorption of the crystalline form. Format: physicochemical. The note with it: experimentally determined. As for the experimental part:
The automated analysis of water sorption was performed using a VTI Symmetrical Gravimetric Analyzer Model 100 (SGA-100) operated in Step-Isotherm mode. The sample was exposed to a cycle of relative humidity (RH) conditions at 25° C. The relative humidity was cycled from 5% to 95% and back to 5% in increments of 5%, and the weight of the sample at each stage was recorded after equilibration (less than 0.01% weight change within 5 minutes). The percent weight change of the sample as a function of the relative humidity was plotted to yield the adsorption/desorption isotherm.

Series [3] in a line: Relative stability of the crystalline form. Format: physicochemical.

Each structure is given as a SMILES string. Where “and” joins values, the source holds several entries; their conditions need not be identical. Identical values can stand only once. Entries after “also recorded” stand apart in the source; their conditions may differ.

Results on five compounds are retold here after patent US20090124652A1, “Polymorphs of 1-(2-Methylpropyl)-1H-Imidazo[4,5-C][1,5]Naphthyridin-4-Amine Ethane-Sulfonate” (Takeda Pharmaceutical Company Limited, priority 2004, published 2009).

The melting point is the temperature of the solid-liquid transition.

With `CC(C)Cn1cnc2c(N)nc3cccnc3c21.CCS(=O)(=O)O.O` (hydrate or solvate), the melting point was 220 to 221 °C and 221.5 to 223.4 °C.

`CC(C)Cn1cnc2c(N)nc3cccnc3c21.CCS(=O)(=O)O` [1-(2-methylpropyl)-1H-imidazo[4,5-c][1,5]naphthyridin-4-amine ethanesulfonate]: the “induction of production of interferon α and/or tumor necrosis factor α” value in series [1] is recorded as “induce the production of certain cytokines; also recorded: inducing the production of interferon α and/or tumor necrosis factor α”.

Consider `CC(C)Cn1cnc2c(N)nc3cccnc3c21` [1-(2-methylpropyl)-1H-imidazo[4,5-c][1,5]naphthyridin-4-amine], for which, in the series with cytokine biosynthesis, the “ability to induce cytokine biosynthesis” value is on record as “induce cytokine biosynthesis”.

Consider `CC(C)Cn1cnc2c(N)nc3cccnc3c21.CCS(=O)(=O)O` [Form B, 1-(2-methylpropyl)-1H-imidazo[4,5-c][1,5]naphthyridin-4-amine ethanesulfonate], for which, in series [2], the hygroscopicity result is given as “hygroscopic”.

In the case of `CC(C)Cn1cnc2c(N)nc3cccnc3c21.CCS(=O)(=O)O.O` [Form C, 1-(2-methylpropyl)-1H-imidazo[4,5-c][1,5]naphthyridin-4-amine ethanesulfonate monohydrate], in series [3], the “stability of crystalline form” value is recorded as “relatively stable”.
